The structures appear in SMILES notation. Like-named read-outs stand apart in the source and are kept apart here.

The nature of series [1]: Phase 1 open-label 2-sequence crossover study, single-dose pharmacokinetics of deutetrabenazine metabolites in healthy subjects. The series is classed as in vivo, human. The following applies: for AUC / Cmax / half-life: both sexes, human, oral, plasma; for AUC / Cmax: healthy subjects, single dose deutetrabenazine 24 mg, % CV in parentheses; for half-life: 24 mg; for AUC (% of Total): share of total circulating DHTBZ exposure after single dose deutetrabenazine 24 mg. How it is done: A phase 1, open-label, 2-sequence crossover study was conducted to evaluate the HTBZ PK profile following administration of valbenazine (40 mg) or deutetrabenazine (24 mg) to a total of 18 healthy male and female subjects.
Subjects received a single dose of valbenazine 40 mg on Day 1 and a single dose of deutetrabenazine 24 mg on Day 16; or received a single dose of deutetrabenazine 24 mg on Day 1 and a single dose of valbenazine 40 mg on Day 16. Valbenazine 40 mg was administered as one 40 mg capsule and deutetrabenazine 24 mg was administered as two 12 mg tablets. Study drug was administered at approximately 0800 hours, approximately 30 minutes after the start of a standard breakfast.
PK parameters were determined using non-compartmental analysis with Phoenix WinNonlin 8.3 software. The in vitro pharmacology of the deuterated HTBZ metabolites was assessed using competitive radioligand binding assays.

The conditions of series [2]: AUSTEDO label; likely similar in CYP2D6 poor metabolizers; cited from earlier work.
[3] abbreviates: metabolites of AUSTEDO, approximate, read-out: half-life (converted).

As a reminder, the AUC is concentration integrated over time. Broadly, the Cmax is the maximum level reached in the sampled fluid or tissue. What is called half-life is how long it takes for the measured level to halve. `[2H]C([2H])([2H])Oc1cc2c(cc1OC([2H])([2H])[2H])[C@@H]1C[C@H](O)[C@@H](CC(C)C)CN1CC2` [[−]-α-DHTBZ, (−)-α-3-isobutyl-9,10-di(methoxy-d3)-1,3,4,6,7, 11b-hexahydro-2H-pyrido[2,1-a]isoquinolin-2-ol]: in series [1], the AUC came to 396 ng·h/mL, the Cmax came out at 32.2 ng/mL and the “AUC (% of Total)” value turned out to be 66%. Also, the half-life in series [1] (setting [3]) is about 12 h.

With `[2H]C([2H])([2H])Oc1cc2c(cc1OC([2H])([2H])[2H])[C@H]1C[C@H](O)[C@H](CC(C)C)CN1CC2` [[+]-β-DHTBZ, (+)-β-3-isobutyl-9,10-di(methoxy-d3)-1,3,4,6,7,11b-hexahydro-2H-pyrido[2,1-a]isoquinolin-2-ol], in series [1], the AUC came out at 176 ng·h/mL, the Cmax was determined as 20.4 ng/mL and the “AUC (% of Total)” value was 29%. Further, the half-life in series [1] (after deutetrabenazine administration, read-out: mean half-life (converted)) was 7.7 h. For the same compound, in series [1] (setting [3]), the half-life was about 5 h.

As to `[2H]C([2H])([2H])Oc1cc2c(cc1OC([2H])([2H])[2H])[C@@H]1C[C@@H](O)[C@@H](CC(C)C)CN1CC2` [[−]-β-DHTBZ, (−)-β-3-isobutyl-9,10-di(methoxy-d3)-1,3,4,6,7,11b-hexahydro-2H-pyrido[2,1-a]isoquinolin-2-ol], in series [1], the AUC amounted to 15.8 ng·h/mL, the Cmax was determined as 1.7 ng/mL and the “AUC (% of Total)” value was 3%. In addition, the half-life in series [1] (setting [3]) is about 8 h.

For the compound `COc1cc2c(cc1OC)[C@@H]1C[C@H](O)[C@@H](CC(C)C)CN1CC2` [α-DHTBZ], the “increase of exposure when taking a strong CYP2D6 inhibitor” value in series [2] is listed as “approximately 3 fold”.

Consider `[2H]C([2H])([2H])Oc1cc2c(cc1OC([2H])([2H])[2H])[C@H]1C[C@@H](O)[C@H](CC(C)C)CN1CC2` [[+]-α-DHTBZ], for which, in series [1], the AUC was 11 ng·h/mL, the Cmax stood at 1.2 ng/mL and the “AUC (% of Total)” value is reported as 2%. In addition, in series [1] (setting [3]), the half-life was about 6 h.

Source of the values: patent US20240197714A1, “METHODS FOR THE ADMINISTRATION OF CERTAIN VMAT2 INHIBITORS” (Neurocrine Biosciences, Inc., priority 2021, published 2024).
